# Measured values from PubChem BioAssay (NCI).
#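 Protocol summary: plate cells (96-well), add compound at 5 concentrations, incubate 48 h, interpolate endpoints linearly. At the GI50, growth is halved. TGI is the concentration that stops growth completely.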
# Key:
# Assay in all cases: NCI anticancer screen, dose series, 48 h
# [1] = tested on: M14 melanoma
# [2] = tested on: RPMI-8226 leukemia
# [3] = tested on: UO-31 renal
# [4] = tested on: ACHN renal
# [5] = tested on: HS 578T breast
# [6] = tested on: SW-620 colon
# [7] = tested on: NCI-H460 lung
# [8] = tested on: HOP-62 NSCLC
# [9] = tested on: RXF 393 renal
# [10] = tested on: A498 renal
# [11] = tested on: OVCAR-4 ovarian
# [12] = tested on: UACC-257 melanoma
# [13] = tested on: SF-295 CNS
# [14] = tested on: IGROV1 ovarian
# [15] = tested on: SR leukemia
# [16] = tested on: K-562 leukemia
# [17] = tested on: DU-145 prostate
# [18] = tested on: U251 CNS
# [19] = tested on: HOP-92 NSCLC
# [20] = tested on: OVCAR-8 ovarian
# [21] = tested on: EKVX NSCLC
# [22] = tested on: NCI-H23 lung
# [23] = tested on: SK-MEL-28 melanoma
# [24] = tested on: 786-0 renal
# [25] = tested on: MDA-MB-435
# [26] = tested on: MALME-3M melanoma
# [27] = tested on: CCRF-CEM leukemia
# [28] = tested on: SNB-75 CNS
# [29] = tested on: MDA-MB-231 breast
# [30] = tested on: NCI-H522 lung
# [31] = tested on: A549 NSCLC
# [32] = tested on: MCF7 breast
# [33] = tested on: SF-539 CNS
# [34] = tested on: NCI/ADR-RES ovarian
# [35] = tested on: BT-549 breast
# [36] = tested on: SK-OV-3 ovarian
# [37] = tested on: NCI-H226 lung
# [38] = tested on: LOX IMVI melanoma
# [39] = tested on: TK-10 renal
# [40] = tested on: SK-MEL-2 melanoma
# [41] = tested on: OVCAR-3 ovarian
# [42] = tested on: MOLT-4 leukemia
# [43] = tested on: HCT-15 colon
# [44] = tested on: OVCAR-5 ovarian
# [45] = tested on: HL-60(TB) leukemia
# [46] = tested on: COLO 205 colon
# [47] = tested on: T-47D breast
# [48] = tested on: HCC-2998 colon
# [49] = tested on: MDA-MB-468 breast
# [50] = tested on: SN12C renal
# [51] = tested on: HCT-116 colon
# [52] = tested on: SK-MEL-5 melanoma
# [53] = tested on: SNB-19 CNS
# [54] = tested on: KM12 colon
# [55] = tested on: UACC-62 melanoma
# [56] = tested on: PC-3 prostate
# [57] = tested on: CAKI-1 renal
# [58] = tested on: SF-268 CNS
# [59] = tested on: HT29 colon
smiles,measurement,setting,value
Cc1ccc(-c2nc(C#N)c(S(=O)(=O)N3CCN(S(C)(=O)=O)CC3)o2)cc1,GI50,[1],26.3 µM
same,TGI,[1],> 100 µM
same,GI50,[2],26.7 µM
same,TGI,[2],> 100 µM
same,GI50,[3],> 100 µM
same,TGI,[3],> 100 µM
same,GI50,[4],44.1 µM
same,TGI,[4],> 100 µM
same,GI50,[5],> 100 µM
same,TGI,[5],> 100 µM
same,GI50,[6],2.48 µM
same,TGI,[6],6.92 µM
same,GI50,[7],> 100 µM
same,TGI,[7],> 100 µM
same,GI50,[8],> 100 µM
same,TGI,[8],> 100 µM
same,GI50,[9],75.6 µM
same,TGI,[9],> 100 µM
same,GI50,[10],> 100 µM
same,TGI,[10],> 100 µM
same,GI50,[11],> 100 µM
same,TGI,[11],> 100 µM
same,GI50,[12],60.4 µM
same,TGI,[12],> 100 µM
same,GI50,[13],61.7 µM
same,TGI,[13],> 100 µM
same,GI50,[14],> 100 µM
same,TGI,[14],> 100 µM
same,GI50,[15],3.16 µM
same,TGI,[15],26 µM
same,GI50,[16],6.66 µM
same,TGI,[16],> 100 µM
same,GI50,[17],> 100 µM
same,TGI,[17],> 100 µM
same,GI50,[18],51.7 µM
same,TGI,[18],> 100 µM
same,GI50,[19],> 100 µM
same,TGI,[19],> 100 µM
same,GI50,[20],23.2 µM
same,TGI,[20],> 100 µM
same,GI50,[21],> 100 µM
same,TGI,[21],> 100 µM
same,GI50,[22],19.3 µM
same,TGI,[22],> 100 µM
same,GI50,[23],> 100 µM
same,TGI,[23],> 100 µM
same,GI50,[24],64 µM
same,TGI,[24],> 100 µM
same,GI50,[25],37.8 µM
same,TGI,[25],> 100 µM
same,GI50,[26],> 100 µM
same,TGI,[26],> 100 µM
same,GI50,[27],3.83 µM
same,TGI,[27],> 100 µM
same,GI50,[28],> 100 µM
same,TGI,[28],> 100 µM
same,GI50,[29],> 100 µM
same,TGI,[29],> 100 µM
same,GI50,[30],2.17 µM
same,TGI,[30],5.94 µM
same,GI50,[31],> 100 µM
same,TGI,[31],> 100 µM
same,GI50,[32],3.74 µM
same,TGI,[32],> 100 µM
same,GI50,[33],73.3 µM
same,TGI,[33],> 100 µM
same,GI50,[34],28 µM
same,TGI,[34],> 100 µM
same,GI50,[35],47.4 µM
same,TGI,[35],> 100 µM
same,GI50,[36],> 100 µM
same,TGI,[36],> 100 µM
same,GI50,[37],> 100 µM
same,TGI,[37],> 100 µM
same,GI50,[38],2.97 µM
same,TGI,[38],16 µM
same,GI50,[39],> 100 µM
same,TGI,[39],> 100 µM
same,GI50,[40],> 100 µM
same,TGI,[40],> 100 µM
same,GI50,[41],24.6 µM
same,TGI,[41],> 100 µM
same,GI50,[42],7.61 µM
same,TGI,[42],37 µM
same,GI50,[43],3.81 µM
same,TGI,[43],62.5 µM
same,GI50,[44],> 100 µM
same,TGI,[44],> 100 µM
same,GI50,[45],65.2 µM
same,TGI,[45],> 100 µM
same,GI50,[46],> 100 µM
same,TGI,[46],> 100 µM
same,GI50,[47],19.2 µM
same,TGI,[47],> 100 µM
same,GI50,[48],53.8 µM
same,TGI,[48],> 100 µM
same,GI50,[49],28.2 µM
same,TGI,[49],> 100 µM
same,GI50,[50],75.1 µM
same,TGI,[50],> 100 µM
same,GI50,[51],11.8 µM
same,TGI,[51],34.7 µM
same,GI50,[52],> 100 µM
same,TGI,[52],> 100 µM
same,GI50,[53],> 100 µM
same,TGI,[53],> 100 µM
same,GI50,[54],> 100 µM
same,TGI,[54],> 100 µM
same,GI50,[55],> 100 µM
same,TGI,[55],> 100 µM
same,GI50,[56],> 100 µM
same,TGI,[56],> 100 µM
same,GI50,[57],> 100 µM
same,TGI,[57],> 100 µM
same,GI50,[58],> 100 µM
same,TGI,[58],> 100 µM
same,GI50,[59],37.1 µM
same,TGI,[59],> 100 µM
